These results are taken from US6815440B2, “Cyclic and heterocyclic N-substituted α-iminohydroxamic and -carboxylic acids” (Aventis Pharma Deutschland GmbH, priority 1995, dated 2004).

SMILES strings stand for the structures. Like-named read-outs stand apart in the source and are kept apart here.

Series [1] concerns the target T1, catalytic domain of human stromelysine (Homo sapiens, UniProt P08254).
T1 construct: enzymatic activity of the catalytic domains of human stomelysine and of neutrophil collagenase; made in house
The experiment in a line: Enzyme inhibition, catalytic domain of human stromelysine (fluorogenic substrate). The series is classed as biochemical. As to conditions: read-out: Stromelysine IC 50. The protocol: (§1) Preparation and determination of the enzymatic activity of the catalytic domains of human stomelysine and of neutrophil collagenase.
(§2) The two enzymes were prepared according to Ye et al., (Biochemistry 31 (1992) 11231-5). To measure the enzyme activity or enzyme inhibitor action, 70 μl of buffer solution and 10 μl of enzyme solution are incubated for 15 minutes with 10 μl of a 10% strength (v/v) aqueous dimethyl sulfoxide solution, which optionally contains the enzyme inhibitor. After addition of 10 μl of a 10% strength (v/v) aqueous dimethyl sulfoxide solution which contains 1 mmol/l of the substrate, the enzyme reaction is monitored by fluorescence spectroscopy (328 nm (ex)/393 nm(em)). The enzyme activity is shown as extinction increase/minute. […] The buffer solution contains 0.05% of Brij (Sigma, Deisenhofen, Germany) and also 0.1 mol/l of tris/HCl, 0.1 mol/l of NaCl, 0.01 mol/l of CaCl2 (pH=7.5) for the determination of the hydroxamic acids up to and including Example 33, or, for the determination of the carboxylic acids from Example 34, 0.1 mol/l of piperazine-N,N′-bis[2-ethanesulfonic acid] pH=6.5.
(§3) The enzyme solution contains 5 μg/ml of one of the enzyme domains prepared according to Ye et al. The substrate solution contains 1 mmol/l of the fluorogenic substrate (7-methoxycoumarin-4-yl)acetyl-Pro-Leu-Gly-Leu-3-(2′,4′-dinitrophenyl)-L-2,3-diaminopropionyl-Ala-Arg-NH2 (Bachem, Heidelberg, Germany).

The target in series [2] is T2, catalytic domain of neutrophil collagenase (Homo sapiens, UniProt P22894).
T2 construct: enzymatic activity of the catalytic domains of human stomelysine and of neutrophil collagenase; made in house
The experiment in a line: Enzyme inhibition, catalytic domain of neutrophil collagenase (fluorogenic substrate). Conditions: read-out: Neutrophil collagenase IC 50. It is filed as biochemical. On the procedure: as §1, §2, §3

Where [3] appears, read: carboxylic acids from Example 34, piperazine-N,N'-bis[2-ethanesulfonic acid] buffer pH=6.5.
Setting [4] is: hydroxamic acids up to and including Example 33, tris/HCl buffer pH=7.5.

T2 sequence (P22894 100-262 limits assumed): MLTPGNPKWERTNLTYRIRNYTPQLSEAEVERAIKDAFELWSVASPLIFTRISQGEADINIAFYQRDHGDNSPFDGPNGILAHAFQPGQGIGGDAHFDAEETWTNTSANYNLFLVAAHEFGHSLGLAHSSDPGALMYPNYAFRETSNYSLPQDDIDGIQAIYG
T1 sequence (P08254 100-272 limits assumed): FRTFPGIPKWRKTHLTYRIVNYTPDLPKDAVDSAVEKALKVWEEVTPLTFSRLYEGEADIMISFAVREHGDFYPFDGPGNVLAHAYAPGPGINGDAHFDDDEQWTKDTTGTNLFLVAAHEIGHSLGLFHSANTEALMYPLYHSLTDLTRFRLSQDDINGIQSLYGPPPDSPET

`O=C(O)[C@H]1Cc2ccccc2CN1S(=O)(=O)c1ccc(-c2nc3ccccc3o2)cc1` [Example 47] came in with a melting point of 211 to 213 °C.

Turning to `O=C(O)[C@H]1Cc2ccccc2CN1S(=O)(=O)c1ccc2oc3ccccc3c2c1` [Example 46], the melting point was 218 to 219 °C. Further, in series [1] (setting [3]), the IC50 was determined as 3 µM. Moreover, the IC50 in series [2] (setting [3]) is 0.3 µM.

With `O=C(O)[C@H]1Cc2cc3c(cc2CN1S(=O)(=O)c1ccc(Oc2ccccc2)cc1)OCO3` [Example 54], the melting point lay in the range of 226 to 228 °C.

In turn, `COc1ccc(S(=O)(=O)N2Cc3cc4c(cc3CC2C(=O)NO)OCO4)cc1` (stereo not shown) [Example 24, 2-(4-Methoxybenzenesulfonyl)-6,7-methylenedioxy-1,2,3,4-tetrahydroisoquinoline-3-hydroxamic acid] had a melting point of 166 °C. For the same compound, the IC50 in series [1] (setting [4]) worked out at 0.06 µM. Further, in series [2] (setting [4]), the IC50 stood at 0.02 µM.

In turn, `O=C(O)[C@H]1Cc2ccccc2CN1S(=O)(=O)c1ccc(Oc2ccccc2)cc1` [41 (13b), R-2-(4-phenoxybenzenesulfonyl)-1,2,3,4-tetrahydroisoquinoline-3-carboxylic acid] had a melting point of 147 °C. Further, the IC50 in series [1] (setting [3]) amounted to 0.2 µM. For the same compound, the IC50 in series [2] (setting [3]) worked out at 0.009 µM.

The compound `O=C(O)[C@H]1Cc2ccccc2CN1S(=O)(=O)c1ccc(-c2ccc(Cl)cc2)cc1` [Example 35] returned a melting point of 207 to 209 °C. Besides, the IC50 in series [1] (setting [3]) came to 0.1 µM. Further, the IC50 in series [2] (setting [3]) was determined as 0.005 µM.

`O=C(O)[C@H]1Cc2ccccc2CN1S(=O)(=O)c1ccc(Oc2ccc(Cl)cc2)cc1` [Example 42, R-2-[4-(4-chlorophenoxy)benzenesulfonyl]-1,2,3,4-tetrahydroisoquinoline-3-carboxylic acid]: the melting point is 167 to 168 °C. Moreover, the IC50 in series [1] (setting [3]) is 0.5 µM. In series [2] (setting [3]), the IC50 was determined as 0.02 µM.

Compound `O=C(NO)[C@H]1Cc2c([nH]c3ccccc23)CN1S(=O)(=O)c1ccc(Oc2ccccc2)cc1` [Example 32, R-2-(4-phenoxybenzenesulfonyl)-1,2,3,4-tetrahydro-9H-pyrido(3,4-b)-indole-3-hydroxamic acid] showed a melting point of 110 to 111 °C. Also, the IC50 in series [1] (setting [4]) came out at 0.06 µM.

Compound `CN(C)c1ccc(-c2ccc(S(=O)(=O)N3Cc4ccccc4C[C@@H]3C(=O)O)cc2)cc1.Cl` [Example 39] displayed a melting point of 122 to 135 °C. Also, the IC50 in series [1] (setting [3]) is 0.1 µM. For the same compound, the IC50 in series [2] (setting [3]) is 0.001 µM.

For the compound `O=C(NO)[C@H]1Cc2c([nH]c3ccccc23)CN1S(=O)(=O)c1ccc(N2CCOCC2)cc1` [Example 33, R-2-(4-morpholinobenzenesulfonyl)-1,2,3,4-tetrahydro-9H-pyrido(3,4-b)-indole-3-hydroxamic acid], the melting point was 125 °C (dec.). For the same compound, the IC50 in series [1] (setting [4]) amounted to 0.3 µM. The IC50 in series [2] (setting [4]) was found to be 0.07 µM.

For the compound `O=C(O)[C@H]1Cc2ccccc2CN1S(=O)(=O)c1ccc(-c2ccccc2)cc1` [Example 34], the melting point is 205 °C. The IC50 in series [1] (setting [3]) is 0.5 µM. Further, the IC50 in series [2] (setting [3]) is 0.01 µM.

As to `COc1ccc(S(=O)(=O)N2c3ccccc3CC2C(=O)NO)cc1` (stereo not shown) [Example 28, 1-(4-Methoxybenzenesulfonyl)indoline-2-hydroxamic acid], the melting point came to 142 °C. Moreover, the IC50 in series [1] (setting [4]) was determined as 2 µM. In addition, the IC50 in series [2] (setting [4]) came out at 0.7 µM.

In the case of `O=C(O)[C@H]1Cc2ccc([N+](=O)[O-])cc2CN1S(=O)(=O)c1ccc(-c2ccc(Cl)cc2)cc1` [Example 50], the IC50 in series [1] (setting [3]) stood at 0.6 µM; in series [2] (setting [3]) it was 0.03 µM.

As for `O=C(O)[C@H]1Cc2cc([N+](=O)[O-])ccc2CN1S(=O)(=O)c1ccc(-c2ccc(F)cc2)cc1` [Example 53], the IC50 turned out to be 0.5 µM in series [1] (setting [3]) and 0.02 µM in series [2] (setting [3]).

On to `O=C(O)[C@H]1Cc2ccc([N+](=O)[O-])cc2CN1S(=O)(=O)c1ccc(-c2ccc(F)cc2)cc1` [Example 52], for which the IC50 amounted to 1 µM in series [1] (setting [3]) and 0.04 µM in series [2] (setting [3]).
